From the supplement of paper PMC10307832

What was measured:
Assay in all cases: relative viability (nuclei count vs DMSO), 5 days (fraction); higher = more cells survive
[1] = compound: C1=CC2=NC=CN=C2C=C1/C=C/3\C(=O)NC(=O)S3 + CCNC(=O)c1noc(-c2cc(C(C)C)c(O)cc2O)c1-c1ccc(CN2CCOCC2)cc1 [Luminespib] (partner 0.01 µM)
Summary of the method: (§1)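 Relative viability equals treated-well nuclei counts divided by vehicle-well nuclei counts. Counts came from 4× images of lung cancer cell lines grown in 1536-well plates for 5 days after pin-tool dosing on the day after seeding. Dosing used one drug alone or a fixed anchor-drug dose plus five library-drug doses (not always all listed) in √10 steps, and values are medians of duplicate plates.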

[2] = compound: C1=CC2=NC=CN=C2C=C1/C=C/3\C(=O)NC(=O)S3 + NC(=O)Nc1cc(-c2cccc(F)c2)sc1C(=O)N[C@H]1CCCNC1 [AZD7762] (partner 0.2 µM)
Summary of the method: as §1

[3] = compound: CCN1CCN(c2ccc(Nc3cc(N(C)C(=O)Nc4c(Cl)c(OC)cc(OC)c4Cl)ncn3)cc2)CC1 [BGJ398] + CC(=O)c1c(C)c2cnc(Nc3ccc(N4CCNCC4)cn3)nc2n(C2CCCC2)c1=O [Palbociclib] (partner 0.5 µM)
Summary of the method: as §1

[4] = compound: C1=CC2=NC=CN=C2C=C1/C=C/3\C(=O)NC(=O)S3 + CC(=O)c1c(C)c2cnc(Nc3ccc(N4CCNCC4)cn3)nc2n(C2CCCC2)c1=O [Palbociclib] (partner 0.5 µM)
Summary of the method: as §1

Row | Cell Line | relative viability ([1]; first compound 0.02 µM) | relative viability ([1]; first compound 0.06325 µM) | relative viability ([1]; first compound 0.2 µM) | relative viability ([1]; first compound 0.6325 µM) | relative viability ([1]; first compound 2 µM) | relative viability ([2]; first compound 0.02 µM) | relative viability ([2]; first compound 0.06325 µM) | relative viability ([2]; first compound 0.2 µM) | relative viability ([2]; first compound 0.6325 µM) | relative viability ([2]; first compound 2 µM) | relative viability ([3]; first compound 0.01 µM) | relative viability ([3]; first compound 0.03162 µM) | relative viability ([3]; first compound 0.1 µM) | relative viability ([3]; first compound 0.3162 µM) | relative viability ([3]; first compound 1 µM) | relative viability ([4]; first compound 0.02 µM) | relative viability ([4]; first compound 0.06325 µM) | relative viability ([4]; first compound 0.2 µM) | relative viability ([4]; first compound 0.6325 µM) | relative viability ([4]; first compound 2 µM)
1 | NCI-H2126 | 0.86 | 1.12 | 0.866 | 0.83 | 0.601 | 0.886 | 1.16 | 0.952 | 0.937 | 0.581 | 0.374 | 0.344 | 0.36 | 0.351 | 0.335 | 0.329 | 0.404 | 0.358 | 0.369 | 0.339
2 | HOP-62 | 0.725 | 0.831 | 0.904 | 0.9 | 0.922 | 0.847 | 0.91 | 0.516 | 0.434 | 0.685 | 0.464 | 0.509 | 0.537 | 0.473 | 0.492 | 0.478 | 0.527 | 0.44 | 0.373 | 0.449
3 | CAL-12T | 0.456 | 0.417 | 0.686 | 0.623 | 0.234 | 0.675 | 0.531 | 0.655 | 0.582 | 0.726 | 0.44 | 0.504 | 0.516 | 0.49 | 0.352 | 0.394 | 0.664 | 0.454 | 0.48 | 0.403
4 | NCI-H1755 | 0.433 | 0.329 | 0.606 | 0.244 | 0.352 | 0.473 | 0.405 | 0.47 | 0.399 | 0.476 | 0.464 | 0.473 | 0.461 | 0.468 | 0.441 | 0.428 | 0.429 | 0.461 | 0.432 | 0.446
